Experimental data published in ChEMBL document CHEMBL1141794, “Alkamides from the leaves of Zanthoxylum syncarpum” (J Nat Prod, 2005).
The source made the active and inactive calls. The rule behind the calls is not given here.

Legend:
Plasmodium falciparum [1] = conditions: D6
Description: (§1) Antiplasmodial activity against chloroquine-sensitive Plasmodium falciparum D6 after 48 hrs

Plasmodium falciparum [2] = conditions: W2
Description: (§2) Antiplasmodial activity against chloroquine-resistant Plasmodium falciparum W2 after 48 hrs

Plasmodium falciparum [3] = assay: microbe, parasite or virus in culture; conditions: W2, 48 h
Description: as §2

Plasmodium falciparum [4] = assay: microbe, parasite or virus in culture; conditions: D6, 48 h
Description: as §1

SMILES	Activity (Plasmodium falciparum [1])	Activity (Plasmodium falciparum [2])	IC50 (Plasmodium falciparum [3]) [nM]	IC50 (Plasmodium falciparum [4]) [nM]
COc1ccc(C(O)CNC(=O)/C=C/c2ccccc2)cc1OC (stereo not drawn)	inactive	inactive	–	–
C[C@@H]1CC[C@H]2[C@@H](C)C(=O)O[C@@H]3O[C@@]4(C)CC[C@@H]1[C@]32OO4 [ARTEMISININ]	–	–	30	40
COc1ccc(C(CNC(=O)/C=C/c2ccccc2)OC(C)=O)cc1OC (stereo not drawn)	inactive	inactive	–	–
COc1ccc([C@H](CNC(=O)/C=C/c2ccccc2)C(=O)/C=C/c2ccccc2)cc1OC	–	–	6100	4200
